Test results: article PMC4721062, “Oxadiazole-2-oxides may have other functional targets, in addition to SjTGR, through which they cause mortality in Schistosoma japonicum” (Parasites & Vectors, 2016)
Read-outs that look alike come from different tables or passages of the source.

Key:
juvenile S. japonicum = test: microbe, parasite or virus in culture; type: cell-based; conditions: for killing at 2 µM / killing at 5 µM / killing at 50 µM / Killing activity 24hr / Killing activity 48hr / Killing activity 72hr: juvenile worms; for Killing activity 24hr / Killing activity 48hr / Killing activity 72hr: 10 μM
Procedure, shortened: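 Juvenile S. japonicum, 20–30 tail-shed cercariae per well, were exposed to compounds at 2, 5, 10 and 50 μM in RPMI 1640 with 10% FBS and HEPES. Survival was scored microscopically at 24, 48 and 72 h, with death defined by disrupted internal structure or tegument or 1 min without motility. % D is dead/total, averaged over three experiments.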

adult S. japonicum = test: microbe, parasite or virus in culture; type: cell-based; conditions: for killing at 25 µM / killing at 50 µM / killing at 100 µM / Killing activity 24hr / Killing activity 48hr / Killing activity 72hr: adult worms; for Killing activity 24hr / Killing activity 48hr / Killing activity 72hr: 10 μM
Procedure, shortened: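 Adult worm pairs recovered by portal perfusion from ICR mice 35 days after infection with 50 cercariae, cultured in RPMI 1640 (pH 7.5, 20 mM HEPES, 10% FBS) at 37 °C, 5% CO2. Oxadiazole-2-oxides at 10, 25, 50, 100 μM; motility and survival scored microscopically at 24, 48, 72 h, death being no movement over 2 min; three independent experiments averaged.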

[1] = Schistosoma japonicum, 24 h, read-out: Killing activity 24hr
[2] = Schistosoma japonicum, 48 h, read-out: Killing activity 48hr
[3] = Schistosoma japonicum, 72 h, read-out: Killing activity 72hr
[4] = Schistosoma japonicum, 24 h, read-out: Mortality of adult worms
[5] = Schistosoma japonicum, 24 h, read-out: Mortality of juvenile worms

| Structure (SMILES) | killing at 2 µM (juvenile S. japonicum; [1]) [%] | killing at 2 µM (juvenile S. japonicum; [2]) [%] | killing at 2 µM (juvenile S. japonicum; [3]) [%] | killing at 5 µM (juvenile S. japonicum; [1]) [%] | killing at 5 µM (juvenile S. japonicum; [2]) [%] | killing at 5 µM (juvenile S. japonicum; [3]) [%] | killing at 50 µM (juvenile S. japonicum; [1]) [%] | killing at 50 µM (juvenile S. japonicum; [2]) [%] | killing at 50 µM (juvenile S. japonicum; [3]) [%] | Killing activity 24hr (juvenile S. japonicum; 24 h) [%D] | Killing activity 48hr (juvenile S. japonicum; 48 h) [%D] | Killing activity 72hr (juvenile S. japonicum; 72 h) [%D] | killing at 25 µM (adult S. japonicum; [1]) [%] | killing at 25 µM (adult S. japonicum; [2]) [%] | killing at 25 µM (adult S. japonicum; [3]) [%] | killing at 50 µM (adult S. japonicum; [1]) [%] | killing at 50 µM (adult S. japonicum; [2]) [%] | killing at 50 µM (adult S. japonicum; [3]) [%] | killing at 100 µM (adult S. japonicum; [1]) [%] | killing at 100 µM (adult S. japonicum; [2]) [%] | other results |
| --- | --- | --- | --- | --- | --- | --- | --- | --- | --- | --- | --- | --- | --- | --- | --- | --- | --- | --- | --- | --- | --- |
| N#Cc1c(-c2ccc(OCc3ccccc3)cc2)no[n+]1[O-] [Compound 19] | 15.1 | 15.1 | 17 | 12.5 | 19.2 | 28.8 | 82.5 | 92.8 | 100 | 43.8 | 50.0 | 65.0 | 100 | 100 | 100 | 100 | 100 | 100 | 100 | 100 | mortality at 25 µM (adult S. japonicum; [4]): > 75%; killing at 100 µM (adult S. japonicum; [3]): 100%; Killing activity 24hr (adult S. japonicum; 24 h): 80.0%D; Killing activity 48hr (adult S. japonicum; 48 h): 100%D; Killing activity 72hr (adult S. japonicum; 72 h): 100%D |
| C#CCOc1ccc(-c2no[n+]([O-])c2C#N)cc1 [Compound 20] | 8.5 | 14.2 | 19.9 | 20 | 24 | 34 | 45.6 | 48.5 | 67.6 | 43.4 | 45.3 | 52.8 | 50 | 100 | 100 | 70 | 100 | 100 | 100 | 100 | mortality at 100 µM (juvenile S. japonicum; Schistosoma japonicum, 72 h, read-out: Mortality of juvenile worms): 67.6 ± 4.5%; mortality at 100 µM (adult S. japonicum; Schistosoma japonicum, read-out: Mortality of adult worms): 100%; killing at 100 µM (adult S. japonicum; [3]): 100%; Killing activity 24hr (adult S. japonicum; 24 h): n.e.; Killing activity 48hr (adult S. japonicum; 48 h): 50.0%D; Killing activity 72hr (adult S. japonicum; 72 h): 75.0%D |
| N#Cc1c(-c2ccc(COc3ccccc3)cc2)no[n+]1[O-] [Compound 23] | 6 | 16.1 | 17.7 | 9 | 15 | 20 | 69.9 | 70.8 | 77 | 45.0 | 60.0 | 66.7 | 100 | 100 | 100 | 100 | 100 | 100 | 100 | 100 | mortality at 50 µM (juvenile S. japonicum; [5]): > 70%; mortality at 25 µM (adult S. japonicum; [4]): > 75%; killing at 100 µM (adult S. japonicum; [3]): 100%; Killing activity 24hr (adult S. japonicum; 24 h): 62.5%D; Killing activity 48hr (adult S. japonicum; 48 h): 87.5%D; Killing activity 72hr (adult S. japonicum; 72 h): 100%D |
| N#Cc1c(-c2ccc(COc3ccc(C=O)cc3)cc2)no[n+]1[O-] [Compound 26] | 36.4 | 36.4 | 50.9 | 48.9 | 48.9 | 53.2 | 46.3 | 63.4 | 85.4 | 56.1 | 61.0 | 80.5 | 85.7 | 100 | 100 | 100 | 100 | 100 | 100 | 100 | mortality at 25 µM (adult S. japonicum; [4]): > 75%; killing at 100 µM (adult S. japonicum; [3]): 100%; Killing activity 24hr (adult S. japonicum; 24 h): n.e.; Killing activity 48hr (adult S. japonicum; 48 h): n.e.; Killing activity 72hr (adult S. japonicum; 72 h): 16.7%D |
| Cc1ccc2cccc(OCc3ccc(-c4no[n+]([O-])c4C#N)cc3)c2n1 [Compound 28] | 8.2 | 13.7 | 19.2 | 14.8 | 21.6 | 26.1 | 31.9 | 36.2 | 39.1 | 14.5 | 17.4 | 30.4 | 100 | 100 | 100 | 100 | 100 | 100 | 100 | 100 | mortality at 50 µM (juvenile S. japonicum; [5]): < 30%; mortality at 25 µM (adult S. japonicum; [4]): > 75%; killing at 100 µM (adult S. japonicum; [3]): 100%; Killing activity 24hr (adult S. japonicum; 24 h): 57.1%D; Killing activity 48hr (adult S. japonicum; 48 h): 57.1%D; Killing activity 72hr (adult S. japonicum; 72 h): 71.4%D |
